Measured values taken from US12357603B2, “Acyl sulfonamides for treating cancer” (Bayer Aktiengesellschaft, priority 2019, dated 2025).
Read-outs that look alike come from different tables or passages of the source.

Key:
MDA-MB-436 cells = experiment: Proliferation assay MDA-MB-436, negative control cell line (Alamar Blue, 144 h); assay type: cell-based; details: arithmetic mean
Procedure, shortened: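 Viability read as Alamar Blue fluorescence (590 nm, 2 h) after 144 h compound exposure at 37 °C, 5% CO2. Cells seeded at 3000 per well in 2.5% FBS DMEM/Ham's F12, dosed a day later over 2.0×10E-9–2.0×10E-5 M in 9 steps with 0.2% DMSO, in triplicate.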

[1] = target: Recombinant human His-tagged Kat6a protein (amino acids 194-810) (Homo sapiens (Human), UniProt Q92794); experiment: Kat6a activity assay (TR-FRET, acetylation of biotinylated Histone-H4-derived peptide); assay type: biochemical; details: 60 mins at 22° C., read-out: KAT6A-DPF/HAT domain IC50 [mol/l] (arithmetic mean)
Procedure, shortened: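 TR-FRET read-out of H4 K8 acetylation, using anti-acetyl-K8 antibody and streptavidin acceptor, after anacardic acid stop; IC50 from four-parameter regression normalized to DMSO. Reaction: recombinant human Kat6a aa 194-810 (insect-cell derived), 220 nM H4 1-24 peptide, 600 nM acetyl-CoA, pH 8, 22 °C, 60 min, compounds 0.01-20 μM.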

[2] = target: Recombinant human GST-tagged Kat6b protein (431-end); experiment: Kat6b activity assay (TR-FRET, acetylation of biotinylated Histone-H4-derived peptide); assay type: biochemical; details: 30 mins at 22° C., read-out: KAT6B activity assay IC50 [mol/l] (arithmetic mean)
Method: Kat6b inhibitory activities of the compounds described in the present invention were quantified using a Fluorescence Resonance Energy Transfer (TR-FRET) assay which measures acetylation of a synthetic, biotinylated Histone-H4-derived peptide by the enzyme.
In this case 50 nl DMSO were used instead of compounds. […] IC50 values were determined by regression analysis based on a 4 parameter equation (minimum, maximum, ICM, Hill; Y=Max+(Min−Max)/(1+(X/ICso) Hill) using the Screener Software (Genedata).

[3] = test system: ESR1 transcription (luciferase signal in MVLN cells); experiment: Repression of ESR1 transcription, luciferase reporter in MVLN cells; assay type: cell-based; details: inhibition of luciferase signal in MVLN cells, arithmetic mean
Procedure, shortened: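 Luminescence from an ER-driven Vitellogenin A2 element–luciferase reporter was measured after 24 h of treatment of MVLN cells, in duplicate wells. Alamar Blue (2 h, 530/590 nm) served as a cell-density control.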

ZR-75-1 cells = experiment: Proliferation assay ZR-75-1 (Alamar Blue, 144 h); assay type: cell-based; details: arithmetic mean, read-out: ZR75-1 proliferation assay, EC50 [M] (arithmetic mean)
Procedure, shortened: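 Alamar Blue fluorescence (590 nm, 2 h reagent step) measured viability after 144 h compound exposure at 37 °C, 5% CO2. Compounds spanned 2.0×10E-5 to 2.0×10E-9 M in 9 dilutions at 0.2% DMSO, in triplicate, added 24 h after plating 3000 cells/well in RPMI 1640 plus 2.5% FBS.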

[4] = Homo sapiens, MDA-MB-436, 144 h

Recombinant human His-tagged Kat6a protein (amino acids 194-810), sequence (Q92794 194-810): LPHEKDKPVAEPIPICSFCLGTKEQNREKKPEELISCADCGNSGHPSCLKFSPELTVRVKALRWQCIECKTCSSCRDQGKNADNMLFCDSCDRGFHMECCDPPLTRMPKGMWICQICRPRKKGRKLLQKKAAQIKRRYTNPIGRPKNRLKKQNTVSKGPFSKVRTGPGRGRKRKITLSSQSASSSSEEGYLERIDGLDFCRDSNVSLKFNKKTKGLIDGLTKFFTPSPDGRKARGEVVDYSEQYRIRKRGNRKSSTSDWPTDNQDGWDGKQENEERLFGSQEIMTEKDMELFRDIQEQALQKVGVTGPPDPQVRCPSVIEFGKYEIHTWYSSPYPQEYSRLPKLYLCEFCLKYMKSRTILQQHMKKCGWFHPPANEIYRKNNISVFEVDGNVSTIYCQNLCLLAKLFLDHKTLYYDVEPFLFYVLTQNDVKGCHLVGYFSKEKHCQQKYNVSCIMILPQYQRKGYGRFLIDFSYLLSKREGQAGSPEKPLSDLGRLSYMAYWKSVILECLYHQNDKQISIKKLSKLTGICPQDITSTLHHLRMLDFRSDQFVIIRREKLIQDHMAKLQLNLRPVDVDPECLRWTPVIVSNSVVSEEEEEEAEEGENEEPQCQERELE

Compound	EC50 (MDA-MB-436 cells; [4]) [nM]	IC50 [1] [nM]	IC50 [2] [nM]	IC50 ([3]; Homo sapiens, MVLN) [nM]	EC50 (ZR-75-1 cells; Homo sapiens, ZR-75-1, 144 h) [M]	EC50 (MDA-MB-436 cells) [nM]	IC50 [3] [nM]	EC50 (ZR-75-1 cells) [M]
CN(C)c1ccc2cc(C(=O)NS(=O)(=O)c3ccccc3C(=O)O)oc2c1 [Example 36, 2-{[6-(Dimethylamino)-1-benzofuran-2-carbonyl]sulfamoyl}benzoic acid]	> 20000	227	169	4030	1.04e-05	–	–	–
CCCCN(CCCC)c1ccc2cc(C(=O)NS(=O)(=O)c3ccccc3-c3ccccc3)oc2c1 [Example 41, N-([1,1′-Biphenyl]-2-sulfonyl)-6-(dibutylamino)-1-benzofuran-2-carboxamide]	18500	2310	2560	14900	8.3e-06	–	–	–
CCOc1cccnc1S(=O)(=O)NC(=O)c1cc2ccc(N(C)C)cc2o1 [Example 101, 6-(Dimethylamino)-N-(3-ethoxypyridine-2-sulfonyl)-1-benzofuran-2-carboxamide]	> 20000	502	610	1440	1.4e-06	–	–	–
CN(C)c1ccc2cc(C(=O)NS(=O)(=O)c3cc(C(C)(C)C)ccc3OC3CCC3)oc2c1 [Example 182, N-[(5-(tert-butyl)-2-cyclobutoxyphenyl)sulfonyl]-6-(dimethylamino)benzofuran-2-carboxamide]	> 20000	2.67	11.9	22	6.1e-08	–	–	–
CCOc1ccccc1S(=O)(=O)NC(=O)c1cc2c(C(F)(F)F)cc(N(C)C)cc2o1 [Example 195, 6-(Dimethylamino)-N-((2-ethoxyphenyl)sulfonyl)-4-(trifluoromethyl)benzofuran-2-carboxamide]	> 20000	5.73	14.7	716	8.71e-07	–	–	–
CN(C)c1ccc2cc(C(=O)NS(=O)(=O)c3ccccc3OCCF)oc2c1 [Example 72, 6-(Dimethylamino)-N-[2-(2-fluoroethoxy)benzene-1-sulfonyl]-1-benzofuran-2-carboxamide]	> 20000	96.7	190	76.5	1.31e-07	–	–	–
CN(c1ccccc1)c1ccc2cc(C(=O)NS(=O)(=O)c3ccccc3)oc2c1 [Example 7]	> 20000	9600	> 20000	> 20000	> 2e-05	–	–	–
CN(C)c1ccc2cc(C(=O)NS(=O)(=O)c3ccccc3OCC(F)F)oc2c1 [Example 75, N-[2-(2,2-Difluoroethoxy)benzene-1-sulfonyl]-6-(dimethylamino)-1-benzofuran-2-carboxamide]	> 20000	163	246	130	1.65e-07	–	–	–
CCOc1ccc(Br)cc1S(=O)(=O)NC(=O)c1cc2c(F)cc(N(C)C)cc2o1 [Example 113, N-(5-Bromo-2-ethoxybenzene-1-sulfonyl)-6-(dimethylamino)-4-fluoro-1-benzofuran-2-carboxamide]	> 20000	7.25	7.24	70.3	1.02e-07	–	–	–
COc1ccc(Cl)cc1S(=O)(=O)NC(=O)c1cc2ccc(N(C)C)cc2o1 [Example 149, N-(5-chloro-2-methoxybenzene-1-sulfonyl)-6-(dimethylamino)-1-benzofuran-2-carboxamide]	> 20000	123	379	138	1.74e-07	–	–	–
Nc1ccc2cc(C(=O)NS(=O)(=O)c3ccccc3-c3ccccc3)oc2c1 [Example 42, 6-Amino-N-([1,1′-biphenyl]-2-sulfonyl)-1-benzofuran-2-carboxamide]	> 20000	1070	3590	> 20000	> 2e-05	–	–	–
CN(C)c1cc(C(F)(F)F)c2cc(C(=O)NS(=O)(=O)c3ccccc3-c3ccccc3)oc2c1 [Example 193, N-([1,1′-biphenyl]-2-ylsulfonyl)-6-(dimethylamino)-4-(trifluoromethyl)benzofuran-2-carboxamide]	> 20000	7.14	12.8	1690	6.55e-06	–	–	–
Cc1ccnc2c(S(=O)(=O)NC(=O)c3cc4ccc(N(C)C)cc4o3)cccc12 [Example 91, 6-(Dimethylamino)-N-(4-methylquinoline-8-sulfonyl)-1-benzofuran-2-carboxamide]	> 20000	74.2	92.2	365	7.79e-07	–	–	–
COc1cc(C)c(Cl)cc1S(=O)(=O)NC(=O)c1cc2ccc(N(C)C)cc2o1 [Example 138, N-(5-Chloro-2-methoxy-4-methylbenzene-1-sulfonyl)-6-(dimethylamino)-1-benzofuran-2-carboxamide]	> 20000	56.7	79.5	216	5.01e-07	–	–	–
COc1ccc(Br)cc1S(=O)(=O)NC(=O)c1cc2ccc(N(C)C)cc2o1 [Example 148, N-(5-Bromo-2-methoxybenzene-1-sulfonyl)-6-(dimethylamino)-1-benzofuran-2-carboxamide]	> 20000	104	68	121	1.28e-07	–	–	–
CN(c1ccccc1)c1ccc2cc(C(=O)NS(=O)(=O)c3ccccc3Cl)oc2c1 [Example 8, N-(2-Chlorophenyl)sulfonyl-6-(N-methylanilino)benzofuran-2-carboxamide]	> 20000	5030	4400	> 20000	> 2e-05	–	–	–
CN(C)c1cc(F)c2cc(C(=O)NS(=O)(=O)c3ccccc3OC3CC3)oc2c1 [Example 110, N-[2-(Cyclopropyloxy)benzene-1-sulfonyl]-6-(dimethylamino)-4-fluoro-1-benzofuran-2-carboxamide]	> 20000	7.48	3.82	12.4	7.12e-08	–	–	–
Cc1ccc2cccc(S(=O)(=O)NC(=O)c3cc4ccc(N(C)C)cc4o3)c2n1 [Example 21, 6-(Dimethylamino)-N-(2-methylquinoline-8-sulfonyl)-1-benzofuran-2-carboxamide]	–	23.4	26.7	–	–	15300	48.5	4.21e-08
COc1ccc(Cl)c(S(=O)(=O)NC(=O)c2cc3ccc(N(C)C)cc3o2)c1 [Example 139, N-(2-Chloro-5-methoxybenzene-1-sulfonyl)-6-(dimethylamino)-1-benzofuran-2-carboxamide]	> 20000	329	369	1370	7.07e-07	–	–	–
CN(C)c1ccc2cc(C(=O)NS(=O)(=O)c3ccccc3OC3CC3)oc2c1 [Example 65, N-[2-(Cyclopropyloxy)benzene-1-sulfonyl]-6-(dimethylamino)-1-benzofuran-2-carboxamide]	> 20000	28.3	34.5	20.4	4.44e-08	–	–	–
CC(C)Oc1cccc(Cl)c1S(=O)(=O)NC(=O)c1cc2ccc(N(C)C)cc2o1 [Example 89, N-{2-chloro-6-[(propan-2-yl)oxy]benzene-1-sulfonyl}-6-(dimethylamino)-1-benzofuran-2-carboxamide]	> 20000	131	172	279	4.45e-07	–	–	–
CCCCCOc1ccccc1S(=O)(=O)NC(=O)c1cc2ccc(N(C)C)cc2o1 [Example 90, 6-(Dimethylamino)-N-[2-(pentyloxy)benzene-1-sulfonyl]-1-benzofuran-2-carboxamide]	> 20000	194	357	312	8.08e-07	–	–	–
CN(C)c1ccc2cc(C(=O)NS(=O)(=O)c3cc(Cl)c(Cl)cc3OC(F)(F)F)oc2c1 [Example 137, N-[4,5-Dichloro-2-(trifluoromethoxy)benzene-1-sulfonyl]-6-(dimethylamino)-1-benzofuran-2-carboxamide]	> 20000	81.5	107	5500	5.61e-06	–	–	–
CCS(=O)(=O)NC(=O)c1cc2ccc(N(C)C)cc2o1 [Example 61, 6-(Dimethylamino)-N-(ethanesulfonyl)-1-benzofuran-2-carboxamide]	> 20000	16100	9850	> 20000	1.77e-05	–	–	–
